Among the data in patent US9686985B2, “Fungicide N-cycloalkyl-N-bicyclicmethylene-carboxamide derivatives” (BAYER INTELLECTUAL PROPERTY GMBH, priority 2012, dated 2017) are Efficacy values, retold here.

For one assay, the system named is Uromyces appendiculatus. Nature of the assay: Example G: in vivo preventive test on Uromyces appendiculatus (bean rust). To be noted: table G1; 500 ppm; bean plants; grading 11 days after contamination. In short, it runs like this:
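Bean plants ("Saxa") at the 2-leaf stage, grown at 24° C., sprayed preventively with active ingredient, then inoculated 24 h later with U. appendiculatus spores (150 000 spores per mL). Incubated 24 h at 20° C./100% RH, then 10 days at 20° C./70-80% RH; % efficacy graded 11 days after contamination versus solvent-treated controls.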

The test system of assay [1] is Blumeria graminis f.sp. hordei. Nature of the assay: Example I: in vivo preventive test on Blumeria graminis (barley). As to conditions: table I, 500 ppm, evaluated 7 days after inoculation. On the procedure: Example I: In Vivo Preventive Test on Blumeria graminis (Barley) [table] To produce a suitable preparation of active compound, 1 part by weight of active compound or active compound combination is mixed with the stated amounts of solvent and emulsifier, and the concentrate is diluted with water to the desired concentration. To test for preventive activity, young plants are sprayed with the preparation of active compound or active compound combination at the stated rate of application. After the spray coating has been dried, the plants are dusted with spores of Blumeria graminis f.sp. hordei. The plants are placed in the greenhouse at a temperature of approximately 18° C. and a relative atmospheric humidity of approximately 80% to promote the development of mildew pustules.

The subject of a further assay is Leptosphaeria nodorum. Briefly: Example J: in vivo preventive test on Leptosphaeria nodorum (wheat). As to conditions: table J, 500 ppm, evaluated 8 days after inoculation. On the procedure:
Example J: In Vivo Preventive Test on Leptosphaeria nodorum Test (Wheat) [table] To produce a suitable preparation of active compound, 1 part by weight of active compound or active compound combination is mixed with the stated amounts of solvent and emulsifier, and the concentrate is diluted with water to the desired concentration. To test for preventive activity, young plants are sprayed with the preparation of active compound or active compound combination at the stated rate of application. After the spray coating has been dried, the plants are sprayed with a spore suspension of Leptosphaeria nodorum. The plants remain for 48 hours in an incubation cabinet at approximately 20° C. and a relative atmospheric humidity of approximately 100%. The plants are placed in the greenhouse at a temperature of approximately 22° C. and a relative atmospheric humidity of approximately 80%.

With `CC(C1CCCc2ccccc21)N(C(=O)c1c(C(F)F)nn(C)c1F)C1CC1` (stereo not drawn) [I.23], the Efficacy in the assay on Uromyces appendiculatus is given as 100%; in assay [1], 78%; with Leptosphaeria nodorum, 100%.

For the compound `Cn1nc(C(F)F)c(C(=O)N(CC2CC(C)(C)Oc3ccccc32)C2CC2)c1F` (stereo not drawn) [I.33], the Efficacy (with Uromyces appendiculatus; in assay [1]; with Leptosphaeria nodorum) was 100% in each case.
